Read-outs that look alike come from different tables or passages of the source.
Assays:
[1] = system: beneficial microorganisms; test: compatibility of surfactants and builders with beneficial microorganisms; assay type: cell-based
Method: The compositions of the present technology comprise at least one surfactant that is incompatible with a beneficial microorganism. Incompatibility between a surfactant and a beneficial microorganism has been investigated in various ways, such as a standard Zone of Inhibition test, a standard agar plating test, or a standard resazurin (7-hydroxy-10-oxidophenoxazin-10-ium-3-one, sodium) (a blue fluorogenic dye) compatibility assay. In a Zone of Inhibition test, microorganisms are grown, cultured, diluted down to target levels, and then applied to a Petri dish containing agar nutrients. Test samples containing the surfactant of interest are diluted and loaded into an agar well created within the agar nutrient. The plates are incubated and microorganism growth is allowed to develop. […] This halo is referred to as the zone of inhibition. The larger the zone, the bigger the effect of inhibition. Major suitability limitations for non-antibiotics test samples for this test method are inherent large dilution of active, agar diffusion challenges, and nutrient media incompatibilities (neutralization, precipitation, etc). Although this method has been used in the medical field for antibiotics very successfully for decades, it has low suitability when testing non-antibiotic samples. In a standard agar plating test, test samples containing the surfactant of interest and microorganisms are exposed, diluted several orders of magnitude, and plated onto a nutritive agar that is incubated. After an incubation period appropriate for the species, the microorganism growth pattern is evaluated against appropriate controls. […] The test samples are incubated and then inspected for colorometric and fluorescence change. Test samples that are blue and have low fluorescence indicate no biological activity and incompatibility between the surfactant and the microorganism. Test samples that are pink and have high fluorescence indicate biological activity and compatibility of the surfactant with the microorganism. […]

[2] = physical stability (spore dispersion) of test compositions; assay type: physicochemical
Method: The alpha sulfonated alkyl ester test compositions from Example 3 were used for this stability assessment because, unexpectedly, the spores in some of the test compositions remained fully dispersed in the compositions after sitting for 1 week, even though the test compositions were at use dilution and water thin. Physical stability of the test compositions was assessed by photographing the test compositions in the parent sample jars (from which the Example 3 samples were taken), looking down on the sample jars, and quantifying the degree of precipitation via Tracker.jar image analysis.

[3] = system: Bacillus species mix in spore form; test: dyed extra-virgin olive oil (EVOO) digestion test with Stat-Ease 360 optimization; assay type: cell-based
Method: Because EVOO is a food source for vegetative cells, lightly-dyed EVOO added to a test sample containing bacterial spores can be an indicator of biological activity. […] Each test composition also included 0.20 g of 33 g/L Nutrient Mix (30 g/L Tryptic Soy Broth BD211825 and 3 g/L Yeast Extract BD212750 at pH 7.1-7.4). The test composition is mixed, then stored at 37° C. for 2-3 days to condition the spores. […] The initial oil drop is digitally photographed, and re-photographed after 4 days of gentle swirling on an orbital shaker at a setting of 1-2 on a scale of 0-10. Oil drop sizes are determined by transferring the photographed images to a computer and measuring the major diameter of each oil drop using a Tracker.jar line profile analysis (https://physlets.org/tracker/) to determine the length of the diameter in units of pixels. Oil drop sizes of initial and digested test samples are compared. […] An increase in measured drop diameter is interpreted as a change in surface tension due to the surfactant, combined with no or minimal EVOO digestion by the bacteria.
Stat-Ease 360 software was used to generate each design of experiment sample group, model the test results from the resulting data, and generate statistics for the optimal models. The models were then used to generate an optimization plot using Stat-Ease 360's Numerical Optimization function. The optimization includes a contour plot of “desirability” of component levels for the defined design space. These plots visually represent the complex relationships between the surfactant and additive components and show where desired performance is high and where it is low or zero.

[4] = system: Bacillus species mix in spore form; test: un-dyed EVOO test, visual haze; settings: for biological activity (haze), magnesium salt in the additive: 0.2 wt % rhamnolipids, 0.03 wt % L-alanine, 0.03 wt % potassium nitrate, 0.14 wt % magnesium salt; for biological activity (haze), low foam alkoxylate with additives: 1.0 wt % TOXIMUL 8240, 0.09 wt % L-alanine
Method: Comparative compositions were also prepared comprising the surfactant and bacterial spores, but no additive. Control compositions contained the bacterial spores, with and without additives, but no surfactant. All test, comparative and control compositions contained 2 wt % of 3.3 g/L Nutrient Mix. The pH was adjusted to pH of 7 if needed, using L-lactic acid or dilute NaOH. The compositions were photographed initially, then re-photographed after 4 and 5-7 days of orbital-mixer shaking at setting “5”, and initial and aged compositions were compared visually to determine differences.

Bacillus spore blend = test: diluted concentrate EVOO haze test; assay type: cell-based
Method: Concentrates of two test formulations were prepared comprising the alkyl ether sulfate surfactant at 7.5 wt % actives, a Bacillus spore blend at 10.0 wt % (5×10^9 CFU/g), a mixture of 0.75 wt % potassium chloride and 0.75 wt % magnesium nitrate, and water to total 100%. Castor oil 36EO alkoxylate (TOXIMUL® 8240) (100% active) in an amount of 1.5 wt % was added to one of the test formulations. Two comparative concentrate compositions were also prepared. One comparative composition comprised the same amount of surfactant and spores but no additive or TOXIMUL® 8240, and the other comparative composition comprised the same amount of surfactant, spores, and TOXIMUL® 8240, but no additive. A total of 20 g of each concentrate composition was prepared.
For the test, each concentrate composition was diluted to 2.0 wt % (1×10^8 CFU/g) in a 4 oz glass jar, with 1 wt % 33 g/L Nutrient (30 g/L Tryptic Soy Broth+3 g/L Yeast Extract), 0.2 wt % Extra Virgin Olive Oil (EVOO), and water to total 50.0 g total weight. The jars were mixed on the orbital shaker for 15-30 minutes and initially photographed, and then mixed on the orbital shaker for 7 days and re-photographed.
Concentrates of the four test formulations were prepared comprising the calcium alkyl benzene sulfonate surfactant at 7.5 wt % actives, a Bacillus spore blend at 10.0 wt % (5×10^9 CFU/g), 1.5 wt % of the respective additive mixture, and water to total 100%. Each concentrate was 20 g total weight. Two control concentrates were also prepared. The positive control concentrate contained 10 wt % of the Bacillus spore blend and water, and the negative control concentrate contained 10 wt % of the Bacillus spore blend, 7.5 wt % surfactant actives, and water.

[5] = alkyl sarcosinate MAPROSYL 30-B, FIG. 3
[6] = alpha-sulfonated alkyl ester ALPHA-STEP PC-48, additives with glucose, FIG. 5
[7] = alpha-sulfonated alkyl ester ALPHA-STEP PC-48, additives without glucose, FIG. 4
[8] = concentrate 7.5 wt % surfactant actives diluted to 2.0 wt %
[9] = surfactant 0.2 wt % active, 0.09 wt % potassium nitrate, 0.02 wt % magnesium chloride hexahydrate, 7 days

For C=CCCCCCCCC(=O)N(C)C [STEPOSOL MET-10U], the “compatibility with beneficial microorganisms” value (“compatibility” for short) [1] was “compatible”.

In the case of C[C@H](N)C(=O)O [L-alanine], the “desirability (contour plot combining digestion and physical stability)” value [2] was “higher desirability”, the “desirability (optimization contour plot of EVOO digestion)” value [3, 5] was “high desirability” and the “desirability (optimization contour plot of EVOO digestion)” value [3, 6] was “low to zero desirability”. For the same compound, the “desirability (optimization contour plot of EVOO digestion)” value [3, 7] was “high desirability” and the “desirability (optimization contour plot of EVOO digestion)” value ([3]; rhamnolipid surfactant, additives without glucose, FIG. 1) was “high desirability”.

With O=S(=O)([O-])[O-].[Mg+2] [MgSO4, magnesium sulfate] the “biological activity (haze), magnesium salt in the additive” value (“biological activity … in the additive” below) ([4]; 7 days) was “restore biological activity”.

For “sodium laureth sulfate [alkyl ether sulfate]”, the “haze after 7 days, 1.5 wt % TOXIMUL 8240, no additive” value (Bacillus spore blend; [8]) was “lack of haze”, the “haze after 7 days, no additive, no TOXIMUL 8240” value (Bacillus spore blend; [8]) was “lack of haze” and the “haze after 7 days, additive and TOXIMUL 8240” value (Bacillus spore blend; concentrate 7.5 wt % surfactant actives, 0.75 wt % potassium chloride, 0.75 wt % magnesium nitrate, 1.5 wt % TOXIMUL 8240, diluted to 2.0 wt %) was “increase in haze”. For the same compound, the “haze after 7 days, additive, no TOXIMUL 8240” value (Bacillus spore blend; concentrate 7.5 wt % surfactant actives, 0.75 wt % potassium chloride, 0.75 wt % magnesium nitrate, diluted to 2.0 wt %) was “lack of haze”.

In the case of O=[N+]([O-])[O-].O=[N+]([O-])[O-].[Mg+2] [Mg(NO3)2, magnesium nitrate], the “biological activity … in the additive” value ([4]; 7 days) was “restore biological activity”.

In the case of O=[N+]([O-])[O-].[K+] [KNO3, potassium nitrate], the “desirability (contour plot combining digestion and physical stability)” value ([2]; alpha sulfonated alkyl ester test compositions of Example 3, FIG. 10) was “higher desirability”, the “desirability (optimization contour plot of EVOO digestion)” value [3, 5] was “high desirability” and the “desirability (optimization contour plot of EVOO digestion)” value [3, 6] was “high desirability”. The “desirability (optimization contour plot of EVOO digestion)” value [3, 7] was “high desirability”.

With “cocoamidopropyl hydroxysultaine [AMPHOSOL® CS-50]” the “biological activity (haze) of bacterial spores, surfactant with additives” value ([4]; surfactant 0.2 wt % active, 0.09 wt % L-alanine, 0.09 wt % potassium nitrate, 0.02 wt % magnesium chloride hexahydrate, 7 days) was “shows haze, indicative of biological activity” and the “biological activity (haze) of bacterial spores, surfactant without additives” value ([4]; surfactant 0.2 wt % active, no additive, 1×10^7 CFU/g, 7 days orbital shaking) was “inhibits biological activity”.

With “C12-C14 monoethanolamide-7EO-4PO [C42 MEA Amide-7EO-4PO]” the “biological activity (haze), low foam alkoxylate with additives” value [4, 9] was “increased biological activity”.

In the case of O.O.O=C([O-])CC(O)(CC(=O)[O-])C(=O)[O-].[Na+].[Na+].[Na+] [sodium citrate dihydrate], the “compatibility” value [1] was “compatible”.

With O=C([O-])[C@H](O)[C@@H](O)[C@H](O)[C@H](O)CO.[Na+] [sodium gluconate] the “compatibility” value [1] was “compatible”.

With isodecyl-1PO-8EO [DA-1PO-8EO] the “biological activity (haze), low foam alkoxylate with additives” value [4, 9] was “increased biological activity” and the “biological activity (haze), low foam alkoxylate without additives” value ([4]; surfactant 0.2 wt % active, 1.0 wt % TOXIMUL 8240, no additive, 7 days) was “the most sign of inhibition”.

In the case of calcium alkyl benzene sulfonate, the “haze after 7 days, equal amounts of the additive components” value (Bacillus spore blend; 7.5 wt % surfactant actives, 0.5 wt % of each of L-alanine, Mg(NO3)2 and KCl, diluted to 2.0 wt %) was “some increase in haze”, the “haze after 7 days, L-alanine as the majority additive component” value (Bacillus spore blend; 7.5 wt % surfactant actives, 1.0 wt % L-Alanine + 0.25 wt % each of KCl and Mg(NO3)2, diluted to 2.0 wt %) was “some increase in haze” and the “haze after 7 days, Mg(NO3)2 as the majority additive component” value (Bacillus spore blend; 7.5 wt % surfactant actives, 1.0 wt % Mg(NO3)2 and 0.25 wt % each of L-alanine and KCl, diluted to 2.0 wt %) was “some increase in haze”. The “haziness after 7 days, surfactant without additive (negative control)” value (Bacillus spore blend; [8]) was “reduced haziness”.

For O=C([O-])CC(O)(CC(=O)[O-])C(=O)O.[Mg+2] [Mg(Citrate) dibasic], the “biological activity … in the additive” value ([4]; 7 days) was “restore biological activity”.

From patent US20260071150A1, “MICROBIAL ENHANCED COMPOSITIONS WHICH OVERCOME ANTAGONISTIC SURFACTANT INCOMPATIBILITY” (Stepan Company, priority 2023, published 2026)
